In US10745401B2, “Condensed lactam derivative” (Sumitomo Dainippon Pharma Co., Ltd., priority 2018, dated 2020):

What was measured:
human 5-HT1A receptor [1] = molecular target: T1, human 5-HT1A receptor (Homo sapiens (Human), UniProt P08908); experiment: Test 1: binding activity for human 5-HT1A receptor ([3H]8-OH-DPAT, CHO cell membrane fraction)
Summary of the method: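 Membranes incubated with [3H]8-OH-DPAT and compound for 60 min at room temperature, then filtered on polyethylenimine-coated glass-fibre plates and counted by liquid scintillation. IC50 from Hill analysis; Ki = IC50/(1+S/Kd), Kd from saturation binding on the same membranes.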

P-gp (MDR1) = P-gp (MDR1) (Homo sapiens (Human), UniProt P08183); experiment: Test 9: P-gp substrate property (NFR, MDCKII and MDR1-MDCKII cells); type: in vitro ADME; settings: Net Flux Ratio, MDR1-MDCKII vs MDCKII cells
Procedure: […]
NFR (Net Flux Ratio), which is an index of P-gp substrate property, can be calculated as follows. MDCKII (Madin-Darby canine kidney strain II) cells and MDR1-MDCKII cells in which MDR1 (multidrug resistance protein 1) was overexpressed were used to measure an apparent permeability coefficient (Papp A-B) from lumen (A) to basement membrane (B) and an apparent permeability coefficient (Papp B-A) from basement membrane (B) to lumen (A) of both MDCKII cells and MDR1-MDCKII cells. NFR (Net Flux Ratio) was calculated from the ratio between Ratio (Papp B-A/Papp A-B) of an apparent permeability coefficient of MDR1-MDCKII cells and Ratio of an apparent permeability coefficient of MDCKII cells.

human 5-HT2A receptor [2] = molecular target: T2, human 5-HT2A receptor (Homo sapiens (Human), UniProt P28223); experiment: Test 1: binding activity for human 5-HT2A receptor ([3H]Ketanserin, CHO cell membrane fraction)
Summary of the method: (§1)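 CHO-cell membranes with [3H]ketanserin (5-HT2A) or [3H]spiperone (D2) were incubated with compound for 60 min at room temperature, then filtered, and bound radioactivity was counted by scintillation. Ki = IC50/(1+S/Kd), with ligand Kd from saturation binding on the same membranes.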

[3] = Test 4: metabolic stability test in human hepatic microsome; type: in vitro ADME; settings: 0.1 mg/mL microsome, 0.1 μmol/L compound, 37° C., 30 minutes
Summary of the method: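 Compound at 0.1 μmol/L incubated 30 min at 37° C with human liver microsomes (0.1 mg/mL) and NADPH (3.2 mmol/L) in 25 mmol/L phosphate buffer, pH 7.4. Residual compound measured by LC-MS; stability (mL/min/mg protein) = −LN(residual ratio)/30/0.1.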

hERG channel = hERG channel (Homo sapiens (Human), UniProt Q12809); experiment: Test 6-1: inhibitory activity for hERG channel (auto patch clamp, Qpatch); type: cell-based; settings: for hERG inhibition IC50 (nmol/L)/5-HT1A Ki (nmol/L): ratio of hERG IC50 to 5-HT1A Ki; for hERG inhibition IC50 (nmol/L)/5-HT2A Ki (nmol/L): ratio of hERG IC50 to 5-HT2A Ki; for IC50: whole cell auto patch clamp, hERG-CHO cells, read-out: hERG inhibition IC50
Summary of the method: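 Whole-cell patch clamp on an automated system using CHO cells stably expressing human hERG (IKr); 15 s pulse interval. Four increasing compound concentrations applied cumulatively; mean peak tail current from last 3 stimulations per concentration used. IC50 from inhibition versus pre-compound current, fitted by Hill equation.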

human 5-HT2A receptor [4] = molecular target: T2, human 5-HT2A receptor; experiment: Test 3: antagonist activity for human 5-HT2A receptor (aequorin luminescence, CHO-K1 cells); type: cell-based; settings: CHO-K1 cells, 1 nmol/L 5-HT
Summary of the method: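 CHO-K1 cells transiently co-expressing aequorin, Gα16 and receptor; compound in DMSO added and luminescence recorded on FDSS/μCELL.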

human D2 receptor = human D2 receptor (Homo sapiens (Human), UniProt P14416); experiment: Test 1: binding activity for human D2 receptor ([3H]Spiperone, CHO cell membrane fraction); settings: for Ki: human D2 receptor, [3H]Spiperone; for D2 Ki/5-HT1A Ki / D2 Ki/5-HT2A Ki: selectivity ratio
Summary of the method: as §1

human 5-HT1A receptor [5] = molecular target: T1, human 5-HT1A receptor; experiment: Test 2: agonist activity for human 5-HT1A receptor ([35S]GTPγS binding); type: biochemical; settings: for EC50: [35S]GTPγS binding, concentration at which half the activity of Emax was obtained; for Emax at 10 µM: agonist activity in the presence of 10 μM of compound, relative to 100 μmol/L 5-HT
Summary of the method: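 Membranes from CHO cells expressing human 5-HT1A incubated with compound, GDP-containing buffer and [35S]GTPγS for 60 min at room temperature. Bound radioactivity collected by glass-fibre filtration and counted by liquid scintillation; agonist activity derived from a formula.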

T1 sequence (P08908 whole entry): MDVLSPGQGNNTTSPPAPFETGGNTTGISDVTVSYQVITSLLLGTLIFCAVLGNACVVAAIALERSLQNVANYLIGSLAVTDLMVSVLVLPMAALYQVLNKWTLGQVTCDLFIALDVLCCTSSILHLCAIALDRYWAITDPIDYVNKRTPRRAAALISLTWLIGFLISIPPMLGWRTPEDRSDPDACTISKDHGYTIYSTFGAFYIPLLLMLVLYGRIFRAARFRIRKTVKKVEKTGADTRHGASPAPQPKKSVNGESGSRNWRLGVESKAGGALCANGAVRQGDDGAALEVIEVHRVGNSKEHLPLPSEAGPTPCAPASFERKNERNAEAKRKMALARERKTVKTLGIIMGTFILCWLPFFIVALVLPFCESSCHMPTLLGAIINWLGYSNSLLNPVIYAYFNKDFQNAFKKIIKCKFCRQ
Sequence of hERG channel (Q12809 whole entry): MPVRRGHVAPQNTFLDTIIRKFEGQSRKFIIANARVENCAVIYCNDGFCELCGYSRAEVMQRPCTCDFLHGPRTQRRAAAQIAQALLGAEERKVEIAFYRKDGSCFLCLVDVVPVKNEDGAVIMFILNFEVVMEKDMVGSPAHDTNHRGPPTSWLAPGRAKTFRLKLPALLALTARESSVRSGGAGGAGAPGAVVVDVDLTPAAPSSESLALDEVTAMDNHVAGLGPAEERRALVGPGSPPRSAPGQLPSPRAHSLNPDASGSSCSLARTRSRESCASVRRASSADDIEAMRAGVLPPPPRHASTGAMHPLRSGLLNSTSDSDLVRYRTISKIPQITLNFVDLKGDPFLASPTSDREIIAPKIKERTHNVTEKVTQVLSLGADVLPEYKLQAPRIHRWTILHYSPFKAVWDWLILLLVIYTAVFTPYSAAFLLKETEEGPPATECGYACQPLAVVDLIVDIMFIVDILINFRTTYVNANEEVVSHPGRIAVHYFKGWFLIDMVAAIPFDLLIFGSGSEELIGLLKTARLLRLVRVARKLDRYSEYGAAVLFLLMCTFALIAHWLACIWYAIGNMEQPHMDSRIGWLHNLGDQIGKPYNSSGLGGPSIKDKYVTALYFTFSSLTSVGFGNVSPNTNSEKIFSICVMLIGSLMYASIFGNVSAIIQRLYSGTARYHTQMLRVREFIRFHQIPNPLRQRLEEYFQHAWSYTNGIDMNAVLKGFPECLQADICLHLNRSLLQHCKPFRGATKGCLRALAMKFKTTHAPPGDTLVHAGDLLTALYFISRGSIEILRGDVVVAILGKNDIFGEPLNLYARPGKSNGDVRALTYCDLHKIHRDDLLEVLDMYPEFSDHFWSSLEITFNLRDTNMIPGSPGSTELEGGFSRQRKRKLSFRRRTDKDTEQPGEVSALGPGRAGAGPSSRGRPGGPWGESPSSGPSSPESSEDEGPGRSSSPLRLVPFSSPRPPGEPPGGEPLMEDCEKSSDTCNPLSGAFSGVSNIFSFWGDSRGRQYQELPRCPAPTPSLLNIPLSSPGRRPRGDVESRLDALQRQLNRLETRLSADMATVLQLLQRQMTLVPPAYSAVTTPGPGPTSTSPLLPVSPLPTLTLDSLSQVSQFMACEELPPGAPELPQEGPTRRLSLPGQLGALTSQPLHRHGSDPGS
Sequence of human D2 receptor (P14416 whole entry): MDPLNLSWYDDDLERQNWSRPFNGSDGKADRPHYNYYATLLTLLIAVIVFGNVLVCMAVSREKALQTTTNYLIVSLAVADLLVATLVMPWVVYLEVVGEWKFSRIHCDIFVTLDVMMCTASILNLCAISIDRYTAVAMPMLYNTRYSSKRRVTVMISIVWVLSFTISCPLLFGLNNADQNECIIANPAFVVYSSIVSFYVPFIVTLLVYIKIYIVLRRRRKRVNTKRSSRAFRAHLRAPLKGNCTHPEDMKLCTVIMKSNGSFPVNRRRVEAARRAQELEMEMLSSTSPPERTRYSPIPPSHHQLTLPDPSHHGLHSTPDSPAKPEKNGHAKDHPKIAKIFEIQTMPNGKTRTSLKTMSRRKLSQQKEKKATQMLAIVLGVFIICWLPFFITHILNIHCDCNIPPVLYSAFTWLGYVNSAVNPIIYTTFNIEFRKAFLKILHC
T2 sequence (P28223 whole entry): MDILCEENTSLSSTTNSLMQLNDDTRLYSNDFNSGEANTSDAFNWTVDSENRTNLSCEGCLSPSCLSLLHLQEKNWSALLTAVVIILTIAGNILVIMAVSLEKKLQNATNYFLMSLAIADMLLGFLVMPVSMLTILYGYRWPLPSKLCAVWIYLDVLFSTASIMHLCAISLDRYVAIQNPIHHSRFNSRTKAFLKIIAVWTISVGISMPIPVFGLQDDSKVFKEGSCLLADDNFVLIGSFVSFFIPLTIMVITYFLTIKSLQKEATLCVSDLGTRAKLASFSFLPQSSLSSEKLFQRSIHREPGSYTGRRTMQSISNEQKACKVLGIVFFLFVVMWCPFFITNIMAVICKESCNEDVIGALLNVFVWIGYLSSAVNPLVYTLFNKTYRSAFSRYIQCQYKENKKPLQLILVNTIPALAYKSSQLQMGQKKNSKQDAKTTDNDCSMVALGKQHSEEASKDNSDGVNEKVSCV
Sequence of P-gp (MDR1) (P08183 whole entry, species assumed): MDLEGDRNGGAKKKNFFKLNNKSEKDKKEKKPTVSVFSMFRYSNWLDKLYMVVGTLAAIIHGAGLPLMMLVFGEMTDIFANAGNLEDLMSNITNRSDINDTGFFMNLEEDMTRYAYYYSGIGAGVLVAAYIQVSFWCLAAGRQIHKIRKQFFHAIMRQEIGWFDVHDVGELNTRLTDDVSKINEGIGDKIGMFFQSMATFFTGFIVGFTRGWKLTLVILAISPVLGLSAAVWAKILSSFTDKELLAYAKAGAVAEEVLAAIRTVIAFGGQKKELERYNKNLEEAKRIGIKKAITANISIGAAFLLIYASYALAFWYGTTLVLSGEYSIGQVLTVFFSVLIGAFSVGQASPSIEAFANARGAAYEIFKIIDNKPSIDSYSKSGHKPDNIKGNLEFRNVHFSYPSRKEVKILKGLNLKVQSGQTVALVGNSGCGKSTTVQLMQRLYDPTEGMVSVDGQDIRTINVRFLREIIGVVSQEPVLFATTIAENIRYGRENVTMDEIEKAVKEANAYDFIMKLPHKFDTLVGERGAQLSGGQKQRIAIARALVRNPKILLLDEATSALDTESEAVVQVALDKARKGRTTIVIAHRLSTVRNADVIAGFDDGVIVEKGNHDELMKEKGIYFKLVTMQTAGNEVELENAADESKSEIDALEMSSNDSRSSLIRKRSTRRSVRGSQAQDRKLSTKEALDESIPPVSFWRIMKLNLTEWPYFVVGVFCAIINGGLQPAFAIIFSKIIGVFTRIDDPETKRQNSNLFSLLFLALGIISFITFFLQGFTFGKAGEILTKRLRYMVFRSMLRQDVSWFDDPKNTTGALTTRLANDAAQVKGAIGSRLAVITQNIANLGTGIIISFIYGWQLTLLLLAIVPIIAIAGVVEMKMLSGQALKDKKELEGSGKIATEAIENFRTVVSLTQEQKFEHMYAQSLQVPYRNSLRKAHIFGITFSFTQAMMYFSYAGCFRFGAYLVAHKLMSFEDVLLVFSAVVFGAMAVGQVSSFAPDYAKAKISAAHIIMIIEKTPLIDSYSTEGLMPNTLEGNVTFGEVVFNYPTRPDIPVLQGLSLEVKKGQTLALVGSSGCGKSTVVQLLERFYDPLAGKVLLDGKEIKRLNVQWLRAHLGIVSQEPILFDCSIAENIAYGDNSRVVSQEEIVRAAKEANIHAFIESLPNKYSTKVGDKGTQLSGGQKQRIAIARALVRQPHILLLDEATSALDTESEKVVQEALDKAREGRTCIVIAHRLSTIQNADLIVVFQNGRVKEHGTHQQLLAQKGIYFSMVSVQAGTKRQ

Row | Compound | Ki (human 5-HT1A receptor [1]) [nM] | NFR (P-gp (MDR1)) | Ki (human 5-HT2A receptor [2]) [nM] | Metabolic stability in human hepatic microsome [3] [mL/min/mg protein] | hERG inhibition IC50 (nmol/L)/5-HT1A Ki (nmol/L) (hERG channel) | hERG inhibition IC50 (nmol/L)/5-HT2A Ki (nmol/L) (hERG channel) | IC50 (hERG channel) [nM] | IC50 (human 5-HT2A receptor [4]; aequorin luminescence) [nM] | Ki (human D2 receptor) [nM] | D2 Ki/5-HT1A Ki (human D2 receptor) | D2 Ki/5-HT2A Ki (human D2 receptor) | EC50 (human 5-HT1A receptor [5]) [nM] | Emax at 10 µM (human 5-HT1A receptor [5]) [%] | IC50 (human 5-HT2A receptor [4]) [nM]
1 | O=C1c2nc(Cl)ccc2CCN1CCN1CCC(c2noc3ccccc23)CC1 [Example 146] | 3.02 | 2.3 | 10.7 | <0.05 | 99 | 28 | 300 | 199 | 772 | 255.8 | 72.4 | 6.07 | 55 | –
2 | Cn1cnc2c1CCN(CCN1CCN(c3nsc4ccccc34)CC1)C2=O [Example 54] | – | 6.6 | – | <0.01 | >3637 | >1538 | > 10000 | – | – | – | – | 38.4 | 55 | 13
3 | O=C1c2cnc(OC3COC3)cc2CCN1CCN1CCN(c2nsc3ccccc23)CC1 [Example 111, 2-{2-[4-(1,2-Benzoisothiazol-3-yl)piperazin-1-yl]ethyl}-6-[(oxetan-3-yl)oxy]-3,4-dihydro-2,7-naphthyridin-1(2H)-one] | 0.91 | – | 1.9 | 0.254 | 2052 | 984 | 1900 | – | 1010 | 1105 | 530 | 4.58 | 51 | 17
4 | Cn1ncc2c1C(=O)N(CCN1CCN(c3nsc4ccccc34)CC1)CC2 [Example 59] | 1.99 | 1.1 | 0.45 | 0.173 | – | – | – | – | 125 | 63 | 278 | 8 | 61 | 9
5 | Cn1ccc2c1CCN(CCN1CCC(c3noc4ccccc34)CC1)C2=O [Example 60] | 13.7 | 1.5 | 1.1 | 0.018 | 51 | 640 | 700 | – | 260 | 19 | 236 | 43 | 54 | 3.91
6 | O=c1c2cnccc2ccn1CCN1CCN(c2noc3ccccc23)CC1 [Example 116] | 128 | – | 26 | 0.1 | – | – | 5300 | 49.7 | > 10000 | – | – | 882 | 60 | –
7 | Cn1ncc2c1CCCN(CCN1CCC(c3noc4ccccc34)CC1)C2=O [Example 43] | 1.3 | 2.2 | 0.93 | <0.01 | 1630 | 2274 | 2100 | – | 222 | 171 | 239 | 8.5 | 73 | 6.52
